How the values were obtained:
[1] = target: GDP-bound HRAS wild-type protein (Homo sapiens, UniProt P01112); experiment: Binding to HRAS by surface plasmon resonance (SPR), Single Cycle Kinetics; conditions: SPR, GDP-bound HRAS wild-type protein vs GDP-bound KRAS wild-type protein
[2] = target: GDP-bound KRAS wild-type protein (Homo sapiens, UniProt P01116); experiment: Binding to KRAS by surface plasmon resonance (SPR), Single Cycle Kinetics; conditions: SPR, Single Cycle Kinetics, GDP-bound KRAS wild-type protein; read-out: KRAS KD
Sequence of GDP-bound KRAS wild-type protein (P01116 whole entry): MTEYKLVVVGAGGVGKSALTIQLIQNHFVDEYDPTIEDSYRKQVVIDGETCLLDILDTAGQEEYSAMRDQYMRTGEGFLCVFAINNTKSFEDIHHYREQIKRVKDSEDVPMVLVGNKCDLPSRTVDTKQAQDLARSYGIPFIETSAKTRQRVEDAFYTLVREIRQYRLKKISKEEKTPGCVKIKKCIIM

[3] = target: GDP-bound NRAS wild-type protein (Homo sapiens, UniProt P01111); experiment: Binding to NRAS by surface plasmon resonance (SPR), Single Cycle Kinetics; conditions: SPR, GDP-bound NRAS wild-type protein vs GDP-bound KRAS wild-type protein
Sequence of GDP-bound NRAS wild-type protein (P01111 whole entry): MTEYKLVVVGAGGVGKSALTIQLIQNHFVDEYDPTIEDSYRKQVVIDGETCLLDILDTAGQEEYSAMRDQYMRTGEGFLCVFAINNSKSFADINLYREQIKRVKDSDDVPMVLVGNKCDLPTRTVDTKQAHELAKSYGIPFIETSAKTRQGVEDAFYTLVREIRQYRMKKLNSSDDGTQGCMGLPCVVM

Sequence of GDP-bound HRAS wild-type protein (P01112 whole entry): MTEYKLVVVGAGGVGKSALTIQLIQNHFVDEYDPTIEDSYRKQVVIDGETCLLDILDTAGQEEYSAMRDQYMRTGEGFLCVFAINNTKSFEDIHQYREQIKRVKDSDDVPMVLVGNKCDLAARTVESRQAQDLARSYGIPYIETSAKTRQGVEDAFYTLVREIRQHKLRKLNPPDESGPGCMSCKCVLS

Compound: CCO[C@@H]1C[C@H]2C(=O)NC3(CCC3)C(=O)N(C)[C@@H](C3CCCC3)C(=O)N(C)[C@H](C(=O)N(C)C)CC(=O)N(C)[C@@H](CC)C(=O)N[C@@H]([C@@H](C)CC)C(=O)N(C)CC(=O)N(C)[C@H]3C/C=C\CCN(C3=O)[C@@H](Cc3ccc(C(F)(F)F)cc3)C(=O)N(C)CC(=O)N[C@@H](CCc3cc(F)c(C(F)(F)F)c(F)c3)C(=O)N2C1 [PP0824, (2S,8S,12R,14S,20S,23S,27S,30S,36S,38Z)-20-cyclopentyl-8-[2-[3,5-difluoro-4-(trifluoromethyl)phenyl]ethyl]-12-ethoxy-27-ethyl-N,N,4,19,22,26,32,35-octamethyl-30-[(1S)-1-methylpropyl]-3,6,9,15,18,21,25,28,31,34,42-undecaoxo-2-[[4-(trifluoromethyl)phenyl]methyl]spiro[1,4,7,10,16,19,22,26,29,32,35-undecazatricyclo[34.5.1.0^10,14]dotetracont-38-ene-17,1′-cyclobutane]-23-carboxamide]
- HRAS/KRAS (ratio of KD value for HRAS to KD value for KRAS) [1]: A (a compound having 10 or more and less than 20 is denoted as A)
- Kd [2]: 0.055 nM
- NRAS/KRAS (ratio of KD value for NRAS to KD value for KRAS) [3]: A (a compound having 10 or more and less than 20 is denoted as A)

Compound: CCO[C@@H]1C[C@H]2C(=O)NC3(CCC3)C(=O)N(C)[C@@H](C3CCCC3)C(=O)N(C)[C@H](C(=O)N3CCOCC3)CC(=O)N(C)[C@@H](CC(C)C)C(=O)N[C@@H]([C@@H](C)CC)C(=O)N(C)CC(=O)N(C)[C@H]3C/C=C\CCN(C3=O)[C@@H](Cc3ccc(C(F)(F)F)cc3)C(=O)N(C)CC(=O)N[C@@H](CCc3ccc(C(F)(F)F)c(Cl)c3)C(=O)N2C1 [PP0825, (2S,8S,12R,14S,20S,23S,27S,30S,36S,38Z)-8-[2-[3-chloro-4-(trifluoromethyl)phenyl]ethyl]-20-cyclopentyl-12-ethoxy-27-isobutyl-4,19,22,26,32,35-hexamethyl-30-[(1S)-1-methylpropyl]-23-(morpholine-4-carbonyl)-2-[[4-(trifluoromethyl)phenyl]methyl]spiro[1,4,7,10,16,19,22,26,29,32,35-undecazatricyclo[34.5.1.0^10,14]dotetracont-38-ene-17,1′-cyclobutane]-3,6,9,15,18,21,25,28,31,34,42-undecone]
- HRAS/KRAS (ratio of KD value for HRAS to KD value for KRAS) [1]: A (a compound having 10 or more and less than 20 is denoted as A)
- Kd [2]: 0.23 nM
- NRAS/KRAS (ratio of KD value for NRAS to KD value for KRAS) [3]: A (a compound having 10 or more and less than 20 is denoted as A)

Compound: CCO[C@@H]1C[C@H]2C(=O)NC3(CCC3)C(=O)N(C)[C@@H](C3CCCC3)C(=O)N(C)[C@H](C(=O)N(C)C)CC(=O)N(C)[C@@H](CC)C(=O)N[C@@H]([C@@H](C)CC)C(=O)N(C)CC(=O)N(C)[C@H]3CC=C(C)CN(C3=O)[C@@H](Cc3ccc(C(F)(F)F)cc3)C(=O)N(C)CC(=O)N[C@@H](CCc3cc(F)c(C(F)(F)F)c(F)c3)C(=O)N2C1 [PP0827]
- HRAS/KRAS (ratio of KD value for HRAS to KD value for KRAS) [1]: C (A compound having a KD ratio of 0.1 or more and less than 3 is denoted as C)
- Kd [2]: 0.11 nM
- NRAS/KRAS (ratio of KD value for NRAS to KD value for KRAS) [3]: C (A compound having a KD ratio of 0.1 or more and less than 3 is denoted as C)

Compound: CCO[C@@H]1C[C@H]2C(=O)NC3(CC(F)(F)C3)C(=O)N(C)[C@@H](C3CCCC3)C(=O)N(C)[C@H](C(=O)N3CCOCC3)CC(=O)N(C)[C@@H](CC(C)C)C(=O)N[C@@H]([C@@H](C)CC)C(=O)N(C)CC(=O)N(C)[C@H]3CC=C(C)CN(C3=O)[C@@H](Cc3ccc(C(F)(F)F)cc3)C(=O)N(C)CC(=O)N[C@@H](CCc3cc(F)c(C(F)(F)F)c(F)c3)C(=O)N2C1 [PP0828]
- HRAS/KRAS (ratio of KD value for HRAS to KD value for KRAS) [1]: C (A compound having a KD ratio of 0.1 or more and less than 3 is denoted as C)
- Kd [2]: 0.17 nM
- NRAS/KRAS (ratio of KD value for NRAS to KD value for KRAS) [3]: C (A compound having a KD ratio of 0.1 or more and less than 3 is denoted as C)

Compound: CCO[C@@H]1C[C@H]2C(=O)NC3(CCC3)C(=O)N(C)[C@@H](C3CCCC3)C(=O)N(C)[C@H](C(=O)N(C)C)CC(=O)N(C)[C@@H](CC)C(=O)N[C@@H]([C@@H](C)CC)C(=O)N(C)CC(=O)N(C)[C@H]3C[C@H]4C[C@H]4CN(C3=O)[C@@H](Cc3ccc(C(F)(F)F)cc3)C(=O)N(C)CC(=O)N[C@@H](CCc3cc(F)c(C(F)(F)F)c(F)c3)C(=O)N2C1 [PP0830]
- HRAS/KRAS (ratio of KD value for HRAS to KD value for KRAS) [1]: C (A compound having a KD ratio of 0.1 or more and less than 3 is denoted as C)
- Kd [2]: 0.058 nM
- NRAS/KRAS (ratio of KD value for NRAS to KD value for KRAS) [3]: C (A compound having a KD ratio of 0.1 or more and less than 3 is denoted as C)

Compound: CCO[C@@H]1C[C@H]2C(=O)NC3(CC(F)(F)C3)C(=O)N(C)[C@@H](C3CCCC3)C(=O)N(C)[C@H](C(=O)N3CCOCC3)CC(=O)N(C)[C@@H](CC(C)C)C(=O)N[C@@H]([C@@H](C)CC)C(=O)N(C)CC(=O)N(C)[C@H]3C[C@H]4C[C@H]4CN(C3=O)[C@@H](Cc3ccc(C(F)(F)F)cc3)C(=O)N(C)CC(=O)N[C@@H](CCc3cc(F)c(C(F)(F)F)c(F)c3)C(=O)N2C1 [PP0831]
- HRAS/KRAS (ratio of KD value for HRAS to KD value for KRAS) [1]: C (A compound having a KD ratio of 0.1 or more and less than 3 is denoted as C)
- Kd [2]: 0.32 nM
- NRAS/KRAS (ratio of KD value for NRAS to KD value for KRAS) [3]: C (A compound having a KD ratio of 0.1 or more and less than 3 is denoted as C)

Compound: CCO[C@@H]1C[C@H]2C(=O)NC3(CCC3)C(=O)N(C)[C@@H](C3CCCC3)C(=O)N(C)[C@H](C(=O)N3CCOCC3)CC(=O)N(C)[C@@H](CC(C)C)C(=O)N[C@@H]([C@@H](C)CC)C(=O)N(C)CC(=O)N(C)[C@H]3CC=CCN(C3=O)[C@@H](Cc3ccc(C(F)(F)F)cc3)C(=O)N(C)CC(=O)N[C@@H](CCc3cc(F)c(C(F)(F)F)c(F)c3)C(=O)N2C1 [PP0832]
- HRAS/KRAS (ratio of KD value for HRAS to KD value for KRAS) [1]: C (A compound having a KD ratio of 0.1 or more and less than 3 is denoted as C)
- Kd [2]: 0.21 nM
- NRAS/KRAS (ratio of KD value for NRAS to KD value for KRAS) [3]: C (A compound having a KD ratio of 0.1 or more and less than 3 is denoted as C)

Compound: CC[C@H](C)[C@@H]1NC(=O)[C@H](COC)N(C)C(=O)C[C@@H](C(=O)N2CCOCC2)N(C)C(=O)[C@H](C2CCCC2)N(C)C(=O)C2(CCC2)NC(=O)[C@@H]2C[C@H](OC)CN2C(=O)[C@H](CCc2cc(F)c(C(F)(F)F)c(F)c2)NC(=O)CN(C)C(=O)[C@H](Cc2ccc(C(F)(F)F)cc2)N2CCCCC[C@@H](C2=O)N(C)C(=O)CN(C)C1=O [PP0836]
- HRAS/KRAS (ratio of KD value for HRAS to KD value for KRAS) [1]: B (a compound having 3 or more and less than 10 is denoted as B)
- Kd [2]: 0.63 nM
- NRAS/KRAS (ratio of KD value for NRAS to KD value for KRAS) [3]: B (a compound having 3 or more and less than 10 is denoted as B)

Compound: CC[C@H](C)[C@@H]1NC(=O)[C@H](COC)N(C)C(=O)C[C@@H](C(=O)N2CCOCC2)N(C)C(=O)[C@H](C2CCCC2)N(C)C(=O)C2(CCC2)NC(=O)[C@@H]2C[C@@H](OC)CN2C(=O)[C@H](CCc2cc(F)c(C(F)(F)F)c(F)c2)NC(=O)CN(C)C(=O)[C@H](Cc2ccc(C(F)(F)F)cc2)N2CCCCC[C@@H](C2=O)N(C)C(=O)CN(C)C1=O [PP0837]
- HRAS/KRAS (ratio of KD value for HRAS to KD value for KRAS) [1]: B (a compound having 3 or more and less than 10 is denoted as B)
- Kd [2]: 0.19 nM
- NRAS/KRAS (ratio of KD value for NRAS to KD value for KRAS) [3]: B (a compound having 3 or more and less than 10 is denoted as B)

Compound: CCCO[C@@H]1C[C@H]2C(=O)NC3(CCC3)C(=O)N(C)[C@@H](C3CCCC3)C(=O)N(C)[C@H](C(=O)N3CCOCC3)CC(=O)N(C)[C@@H](COC)C(=O)N[C@@H]([C@@H](C)CC)C(=O)N(C)CC(=O)N(C)[C@H]3CCCCCN(C3=O)[C@@H](Cc3ccc(C(F)(F)F)cc3)C(=O)N(C)CC(=O)N[C@@H](CCc3cc(F)c(C(F)(F)F)c(F)c3)C(=O)N2C1 [PP0838]
- HRAS/KRAS (ratio of KD value for HRAS to KD value for KRAS) [1]: B (a compound having 3 or more and less than 10 is denoted as B)
- Kd [2]: 0.53 nM
- NRAS/KRAS (ratio of KD value for NRAS to KD value for KRAS) [3]: B (a compound having 3 or more and less than 10 is denoted as B)

Compound: CC[C@H](C)[C@@H]1NC(=O)[C@H](COC)N(C)C(=O)C[C@@H](C(=O)N2CCOCC2)N(C)C(=O)[C@H](C2CCCC2)N(C)C(=O)C2(CCC2)NC(=O)[C@@H]2C[C@@H](OCC(C)C)CN2C(=O)[C@H](CCc2cc(F)c(C(F)(F)F)c(F)c2)NC(=O)CN(C)C(=O)[C@H](Cc2ccc(C(F)(F)F)cc2)N2CCCCC[C@@H](C2=O)N(C)C(=O)CN(C)C1=O [PP0839]
- HRAS/KRAS (ratio of KD value for HRAS to KD value for KRAS) [1]: B (a compound having 3 or more and less than 10 is denoted as B)
- Kd [2]: 1.1 nM
- NRAS/KRAS (ratio of KD value for NRAS to KD value for KRAS) [3]: B (a compound having 3 or more and less than 10 is denoted as B)

Compound: CC[C@H](C)[C@@H]1NC(=O)[C@H](COC)N(C)C(=O)C[C@@H](C(=O)N2CCOCC2)N(C)C(=O)[C@H](C2CCCC2)N(C)C(=O)C2(CCC2)NC(=O)[C@@H]2CCN2C(=O)[C@H](CCc2cc(F)c(C(F)(F)F)c(F)c2)NC(=O)CN(C)C(=O)[C@H](Cc2ccc(C(F)(F)F)cc2)N2CCCCC[C@@H](C2=O)N(C)C(=O)CN(C)C1=O [PP0840]
- HRAS/KRAS (ratio of KD value for HRAS to KD value for KRAS) [1]: B (a compound having 3 or more and less than 10 is denoted as B)
- Kd [2]: 5 nM
- NRAS/KRAS (ratio of KD value for NRAS to KD value for KRAS) [3]: B (a compound having 3 or more and less than 10 is denoted as B)

Compound: CCO[C@@H]1C[C@H]2C(=O)NC3(CCCC3)C(=O)N(C)[C@@H](C3CCCC3)C(=O)N(C)[C@H](C(=O)N3CCOCC3)CC(=O)N(C)[C@@H](COC)C(=O)N[C@@H]([C@@H](C)CC)C(=O)N(C)CC(=O)N(C)[C@H]3CCCCCN(C3=O)[C@@H](Cc3ccc(C(F)(F)F)cc3)C(=O)N(C)CC(=O)N[C@@H](CCc3cc(F)c(C(F)(F)F)c(F)c3)C(=O)N2C1 [PP0841]
- HRAS/KRAS (ratio of KD value for HRAS to KD value for KRAS) [1]: B (a compound having 3 or more and less than 10 is denoted as B)
- Kd [2]: 0.73 nM
- NRAS/KRAS (ratio of KD value for NRAS to KD value for KRAS) [3]: B (a compound having 3 or more and less than 10 is denoted as B)

From patent US20240158446A1, “CYCLIC COMPOUND HAVING SELECTIVE INHIBITORY ACTION ON KRAS OVER HRAS AND NRAS” (CHUGAI SEIYAKU KABUSHIKI KAISHA, priority 2021, published 2024)
